pIC50: −log10 of the molar value. Counter-ions that a name gives are not always drawn.
Molecular target: T1, full-length human PRMT1 isoform 1 (GST-tagged) (Homo sapiens, UniProt Q99873)
T1 construct: GST-tagged PRMT1 was eluted with 50 mM Tris, 2 mM glutathione, pH 7.8, dialysed in buffer A and concentrated; made in house; host or cells: High Five insect cells (baculovirus)
Experiment: PRMT1 biochemical assay (3H-SAM Flashplate, histone H4 36-50 peptide)
Conditions: 0.5 nM PRMT1, 30 min preincubation, 20 nM peptide
Outline: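 GST-PRMT1 (0.5 nM) preincubated 30 min at room temperature with compound in bicine buffer pH 7.6. Reaction then run with 200 nM 3H-SAM plus 1.5 uM SAM and 20 nM biotinylated H4 36-50 peptide, 2% DMSO. Stopped with excess cold SAM, and methylated peptide captured on streptavidin Flashplates for counting; % inhibition versus DMSO and 1 mM SAH controls, 3- or 4-parameter fit.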

T1 sequence (Q99873 with tags, fused parts or gaps): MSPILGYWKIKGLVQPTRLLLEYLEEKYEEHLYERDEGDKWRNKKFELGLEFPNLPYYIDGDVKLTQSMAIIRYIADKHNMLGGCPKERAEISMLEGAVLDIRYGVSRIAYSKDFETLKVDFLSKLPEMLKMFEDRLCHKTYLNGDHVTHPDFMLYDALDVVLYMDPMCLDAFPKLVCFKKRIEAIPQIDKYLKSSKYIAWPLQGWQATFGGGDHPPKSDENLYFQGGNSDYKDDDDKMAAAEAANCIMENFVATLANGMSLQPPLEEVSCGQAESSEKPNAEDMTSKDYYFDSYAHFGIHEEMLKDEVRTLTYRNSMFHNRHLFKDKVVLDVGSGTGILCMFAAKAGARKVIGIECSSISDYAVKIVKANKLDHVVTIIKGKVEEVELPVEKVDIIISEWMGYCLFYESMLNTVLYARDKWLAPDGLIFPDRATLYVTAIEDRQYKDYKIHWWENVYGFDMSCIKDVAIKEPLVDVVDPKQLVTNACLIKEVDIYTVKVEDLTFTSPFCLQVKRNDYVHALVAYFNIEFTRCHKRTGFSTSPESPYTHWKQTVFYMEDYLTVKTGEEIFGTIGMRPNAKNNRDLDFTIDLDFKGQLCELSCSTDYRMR

SMILES | pIC50
CNCCN(C)Cc1c[nH]nc1C1CCC(OCCCOC)C2(CCCC2)C1 (mixture of isomers) [compound 19, N1-((3-(10-(3-methoxypropoxy)spiro[4.5]decan-7-yl)-1H-pyrazol-4-yl)methyl)-N1,N2-dimethylethane-1,2-diamine dihydrochloride] | 7.95
CNCCN(C)Cc1sc(C)nc1[C@H]1CC[C@@]2(CC1)CC(C)(C)CO2 [compound 78] | 7.64

Source: patent US20170291905A1, “ARGININE […] INHIBITORS AND USES THEREOF” (Epizyme, Inc., priority 2014, published 2017)
